Measured values: patent publication EP0701561B1, “DESOXYAZAPHOSPHOLIPID DERIVATIVES HAVING INHIBITING ACTIVITY ON PHOSPHOLIPASE A2” (LABORATORIOS MENARINI S.A., priority 1993, dated 1994)

System: carrageenin plantar oedema
Assay: Antiinflammatory activity, inhibition of the carrageenin plantar oedema in the rat
Format: in vivo, male Sprague-Dawley rats
Conditions: intravenously, dose 2.5 mg/Kg, paw volume 3 hours after carrageenin
Method: The antiinflammatory action of the compounds of the present invention is determined by a standard test based on the procedure by Winter C.A. et al. (Proc. Soc. Exp. Biol. Med., 111, 544 (1962)). In this test, male Sprague-Dawley rats of 90-110 g are used, which are randomized in groups of 5 animals. The compound under test is administered intravenously in the tail lateral vein. The compound is suspended in Tween 20 (2-3% final concentration) and physiological serum is added to obtain a solution of the desired concentration of the compound, the administered volume being 2.5 ml/kg. Immediately after the injection of the compound, a subplantar injection of 0.1 ml of 1% carrageenin in physiological serum is performed in the right paw of the rat. In each test, a control group is systematically used, which is administered with the vehicle only. The paw inflammation is evaluated by measuring its volume with a water plethysmograph 1, 3 and 6 hours after inducing the inflammation. The determination of the inhibition percentage of the inflammation is calculated by the following formula: % Inhibition = (1 - A/B) x 100 [formula] wherein A is the average of the swelling volume in the group of treated animals and B is the average of the swelling volume in the control group.
For comparison purposes, the inhibition values of indomethacin and ketoprofen are also included as reference. The inhibition value found for Compound A, a structural analogous of the compounds described in the present patent, is also shown.

Compound | % Inhibition (3 hours) [%]
CCCCCCCCCCS(=O)(=O)NC(CCCCCC)COP(=O)(O)OCCOCc1ccccc1 (stereo not shown) [Compound 26, 2-Decanesulfonylaminooctanol-1-phospho-2-benzyloxyethanol] | 26

Same assay, conditions: intravenously, dose 5 mg/Kg, paw volume 3 hours after carrageenin

Compound | % Inhibition (3 hours) [%]
CCCCCCCCCCS(=O)(=O)N[C@@H](CCCCCC)COP(=O)(O)OCCOCc1ccccc1 [Compound 28, (S)-2-Decanesulfonylaminooctanol-1-phospho-2-benzyloxyethanol] | 19
(S)-2-Decanesulfonylaminohexanol-1-phospho-2-benzyloxyethanol [Compound 30] | 12
(R)-2-Decanesulfonylaminohexanol-1-phospho-2-benzyloxyethanol [Compound 29] | 27
CCCCCCCCCCS(=O)(=O)NC(CCCCCC)COP(=O)(O)OCCOCc1ccccc1 (stereo not shown) [Compound 26, 2-Decanesulfonylaminooctanol-1-phospho-2-benzyloxyethanol] | 37
CCCCCCCCCCS(=O)(=O)N[C@H](CCCCCC)COP(=O)(O)OCCOCc1ccccc1 [Compound 27, (R)-2-Decanesulfonylaminooctanol-1-phospho-2-benzyloxyethanol] | 36
COc1ccc2c(c1)c(CC(=O)O)c(C)n2C(=O)c1ccc(Cl)cc1 [Indomethacin, indomethacin, reference compound] | 37
CC(C(=O)O)c1cccc(C(=O)c2ccccc2)c1 (stereo not shown) [Ketoprofen, ketoprofen, reference compound] | 37
CCCCCCCCCCS(=O)(=O)NC(CCCCCC)COP(=O)(O)CCCCc1ccccc1 (stereo not shown) [Compound 38, 2-Decanesulfonaminooctyl (4-phenylbutyl)phosphonate] | 23
CCCCCCC(COP(=O)(O)OCCOCc1ccccc1)NS(=O)(=O)CCCc1ccccc1 (stereo not shown) [Compound 32, 2-(3-Phenylpropanesulfonylamino)octanol-1-phospho-2-benzyloxyethanol] | 35
CCCCCCCCCCCC(=O)NC(CCCCCC)COP(=O)(O)CCCC (stereo not shown) [Compound 39, 2-Dodecanoylaminooctyl butylphosphonate] | 17

Same assay, conditions: intravenously, dose 10 mg/Kg, paw volume 3 hours after carrageenin

Compound | % Inhibition (3 hours) [%]
CCCCCCCCCCS(=O)(=O)NC(CCCCCC)COP(=O)(O)OCCOCc1ccccc1 (stereo not shown) [Compound 26, 2-Decanesulfonylaminooctanol-1-phospho-2-benzyloxyethanol] | 41
CCCCCCCCCCCC(=O)NC(CCCCCC)COP(=O)(O)OCCOCc1ccccc1 (stereo not shown) [Compound A, 2-dodecanoylaminooctanol-1-phospho-2-benzyloxyethanol, reference compound] | 14
